Laboratory results taken from ChEMBL document CHEMBL1201862, “PubChem BioAssay data set” (2004).
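Tested at 5 concentrations; 48 h exposure; 96-well plates; endpoints linearly interpolated, else capped at highest concentration. Here, GI50 denotes the concentration required for 50% inhibition of growth.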 Calls of active or inactive are those of the source. No stated cut-off is given here; in the data, active = GI50 up to about 1.1 µM and inactive = higher.

Legend:
Assay in all cases: NCI tumour cell line growth inhibition, 48 h
LOX IMVI = system: LOX IMVI
MDA-N = system: MDA-N
COLO 205 = system: COLO 205
MOLT-4 = system: MOLT-4
NCI-H23 = system: NCI-H23
UACC-257 = system: UACC-257
SK-MEL-2 = system: SK-MEL-2
BT-549 = system: BT-549
MDA-MB-231 = system: MDA-MB-231
SF-539 = system: SF-539
SNB-75 = system: SNB-75
HL-60 = system: HL-60
PC-3 = system: PC-3
SK-MEL-28 = system: SK-MEL-28
SK-MEL-5 = system: SK-MEL-5
HOP-92 = system: HOP-92
HCT-15 = system: HCT-15
OVCAR-5 = system: OVCAR-5
SF-268 = system: SF-268
CAKI-1 = system: CAKI-1

SMILES | GI50 (LOX IMVI) | GI50 (MDA-N) | GI50 (COLO 205) | GI50 (MOLT-4) | GI50 (NCI-H23) | GI50 (UACC-257) | GI50 (SK-MEL-2) | GI50 (BT-549) | GI50 (MDA-MB-231) | GI50 (SF-539) | GI50 (SNB-75) | GI50 (HL-60) | GI50 (PC-3) | GI50 (SK-MEL-28) | GI50 (SK-MEL-5) | GI50 (HOP-92) | GI50 (HCT-15) [µM] | GI50 (OVCAR-5) | GI50 (SF-268) | GI50 (CAKI-1)
COC(=O)[C@@H](NC(=O)N(Cc1ccccc1)C[C@H](CC(C)C)NC(=O)[C@@H](NC(=O)OC(C)(C)C)C(C)C)C(C)C | > 100 µM (inactive) | > 100 µM (inactive) | > 100 µM (inactive) | > 100 µM (inactive) | > 100 µM (inactive) | > 100 µM (inactive) | > 100 µM (inactive) | > 100 µM (inactive) | > 100 µM (inactive) | > 100 µM (inactive) | 33.7 µM (inactive) | > 100 µM (inactive) | > 100 µM (inactive) | > 100 µM (inactive) | > 100 µM (inactive) | > 100 µM (inactive) | > 100 | > 100 µM (inactive) | > 100 µM (inactive) | > 100 µM (inactive)
COc1ccc(N(C(=O)OC(C)(C)C)[C@@H]2C(C)=C[C@H]([S@@+]([O-])c3ccc(C)cc3)[C@@H]3C(=O)N(C)C(=O)[C@@H]32)cc1 | 3.85 µM (inactive) | 18.3 µM (inactive) | 17 µM (inactive) | 27.5 µM (inactive) | 20.9 µM (inactive) | 17.5 µM (inactive) | 18.5 µM (inactive) | 13.6 µM (inactive) | 17.4 µM (inactive) | 18.4 µM (inactive) | 4.94 µM (inactive) | 22 µM (inactive) | 23.9 µM (inactive) | 18.7 µM (inactive) | 16.6 µM (inactive) | 17.7 µM (inactive) | 27.5 | 21.9 µM (inactive) | 12.6 µM (inactive) | 25.3 µM (inactive)
CCC1(OC(=O)CNC)C(=O)OCc2c1cc1n(c2=O)Cc2cc3ccccc3nc2-1 (stereo not given) | < 0.01 µM (active) | 0.0419 µM (active) | 0.148 µM (active) | < 0.01 µM (active) | < 0.01 µM (active) | 0.0393 µM (active) | 0.155 µM (active) | 0.0594 µM (active) | 0.31 µM (active) | < 0.01 µM (active) | < 0.0104 µM (active) | < 0.01 µM (active) | 0.0269 µM (active) | 0.213 µM (active) | < 0.0125 µM (active) | 0.0491 µM (active) | 0.0942 | 0.0247 µM (active) | < 0.01 µM (active) | < 0.01 µM (active)
C=CCN1C(=O)/C(=C/c2ccc(C)cc2)NC1=S | 63.2 µM (inactive) | 94.8 µM (inactive) | 63.5 µM (inactive) | 27.1 µM (inactive) | 57.5 µM (inactive) | 43.6 µM (inactive) | > 100 µM (inactive) | > 100 µM (inactive) | 60.1 µM (inactive) | > 100 µM (inactive) | > 100 µM (inactive) | 20 µM (inactive) | > 100 µM (inactive) | > 100 µM (inactive) | 39.6 µM (inactive) | 59.3 µM (inactive) | > 100 | > 100 µM (inactive) | > 100 µM (inactive) | > 100 µM (inactive)
CC(NNC(=O)c1cc[n+]([BH2-]C#N)cc1)c1ccccc1 (stereo not given) | > 100 µM (inactive) | > 100 µM (inactive) | > 100 µM (inactive) | > 100 µM (inactive) | > 100 µM (inactive) | > 100 µM (inactive) | > 100 µM (inactive) | > 100 µM (inactive) | > 100 µM (inactive) | > 100 µM (inactive) | > 100 µM (inactive) | > 100 µM (inactive) | > 100 µM (inactive) | > 100 µM (inactive) | > 100 µM (inactive) | > 100 µM (inactive) | > 100 | > 100 µM (inactive) | > 100 µM (inactive) | > 100 µM (inactive)
CCc1nc2cc(F)ccc2[nH]c1=O | > 100 µM (inactive) | > 100 µM (inactive) | > 100 µM (inactive) | > 100 µM (inactive) | > 100 µM (inactive) | > 100 µM (inactive) | > 100 µM (inactive) | > 100 µM (inactive) | > 100 µM (inactive) | > 100 µM (inactive) | 82.8 µM (inactive) | > 100 µM (inactive) | > 100 µM (inactive) | > 100 µM (inactive) | > 100 µM (inactive) | > 100 µM (inactive) | > 100 | > 100 µM (inactive) | > 100 µM (inactive) | > 100 µM (inactive)
CC(C)(C)C#CI1OC(=O)c2ccccc21 | 1.09 µM (active) | 4.17 µM (inactive) | 2.28 µM (inactive) | 1.02 µM (active) | 3.48 µM (inactive) | 6.05 µM (inactive) | 10.7 µM (inactive) | 3.16 µM (inactive) | 5.94 µM (inactive) | 2.82 µM (inactive) | 7.28 µM (inactive) | 0.513 µM (active) | 6.31 µM (inactive) | 4.34 µM (inactive) | 6.08 µM (inactive) | 1.72 µM (inactive) | 3.38 | 7.67 µM (inactive) | 4.34 µM (inactive) | 3.11 µM (inactive)
CO/C(N)=C(C#N)/N=C/c1cccnc1 | > 100 µM (inactive) | > 100 µM (inactive) | > 100 µM (inactive) | > 100 µM (inactive) | > 100 µM (inactive) | > 100 µM (inactive) | > 100 µM (inactive) | > 100 µM (inactive) | > 100 µM (inactive) | > 100 µM (inactive) | > 100 µM (inactive) | > 100 µM (inactive) | > 100 µM (inactive) | > 100 µM (inactive) | > 100 µM (inactive) | > 100 µM (inactive) | > 100 | > 100 µM (inactive) | > 100 µM (inactive) | 71.9 µM (inactive)
CC(O)C1(CNc2cc(Cl)nc(N)n2)CCCC1 (stereo not given) | > 100 µM (inactive) | > 100 µM (inactive) | > 100 µM (inactive) | > 100 µM (inactive) | 90.4 µM (inactive) | > 100 µM (inactive) | > 100 µM (inactive) | > 100 µM (inactive) | > 100 µM (inactive) | > 100 µM (inactive) | 71 µM (inactive) | > 100 µM (inactive) | > 100 µM (inactive) | > 100 µM (inactive) | > 100 µM (inactive) | 98.9 µM (inactive) | > 100 | > 100 µM (inactive) | > 100 µM (inactive) | > 100 µM (inactive)
Cc1ccc([N+](=O)[O-])cc1S(=O)(=O)Nc1ccc(C2=NN(c3ccc([N+](=O)[O-])cc3[N+](=O)[O-])C(c3cccs3)C2)cc1 (stereo not given) | 18.3 µM (inactive) | 16.2 µM (inactive) | 23.2 µM (inactive) | 13.9 µM (inactive) | 18.7 µM (inactive) | 16 µM (inactive) | 12.1 µM (inactive) | 20.7 µM (inactive) | 15 µM (inactive) | 27 µM (inactive) | 19.5 µM (inactive) | 23.1 µM (inactive) | 25.9 µM (inactive) | 56.5 µM (inactive) | 11.5 µM (inactive) | 16.1 µM (inactive) | 15.4 | 43.9 µM (inactive) | 16.4 µM (inactive) | 25.5 µM (inactive)
CCC(C)OC(=O)/C(Br)=C1/OC(=O)c2ccccc2-c2ccccc21 (stereo not given) | 18.2 µM (inactive) | 32.6 µM (inactive) | 18.3 µM (inactive) | 6.85 µM (inactive) | 50 µM (inactive) | 88.7 µM (inactive) | 24.2 µM (inactive) | 18.8 µM (inactive) | > 10 µM (inactive) | 24 µM (inactive) | 31.6 µM (inactive) | > 100 µM (inactive) | 31.8 µM (inactive) | 30.1 µM (inactive) | 21.2 µM (inactive) | 27.3 µM (inactive) | 18 | 80 µM (inactive) | 56.4 µM (inactive) | 43.4 µM (inactive)
COc1cccc(C2SCC(=O)N2c2ccc(-n3c(-c4ccccc4)nc4ccccc4c3=O)cc2)c1OC (stereo not given) | > 100 µM (inactive) | > 100 µM (inactive) | > 100 µM (inactive) | > 100 µM (inactive) | > 100 µM (inactive) | > 100 µM (inactive) | > 100 µM (inactive) | > 100 µM (inactive) | > 100 µM (inactive) | > 100 µM (inactive) | > 60.5 µM (inactive) | > 100 µM (inactive) | > 100 µM (inactive) | > 100 µM (inactive) | > 100 µM (inactive) | > 100 µM (inactive) | > 100 | > 100 µM (inactive) | > 100 µM (inactive) | > 100 µM (inactive)
COP(=O)(OC)C(Nc1ccc(Cc2ccc(NC(c3ccco3)P(=O)(OC)OC)cc2)cc1)c1ccco1 (stereo not given) | 82.2 µM (inactive) | > 100 µM (inactive) | > 100 µM (inactive) | > 100 µM (inactive) | 14 µM (inactive) | > 100 µM (inactive) | 14 µM (inactive) | 17.3 µM (inactive) | 15.9 µM (inactive) | 4.79 µM (inactive) | 3.33 µM (inactive) | > 100 µM (inactive) | 52.7 µM (inactive) | > 100 µM (inactive) | > 100 µM (inactive) | 6.47 µM (inactive) | > 100 | 46.8 µM (inactive) | 15.4 µM (inactive) | 26.3 µM (inactive)
NC(C(=O)O)C(O)c1c[nH]cn1 (stereo not given) | > 100 µM (inactive) | > 100 µM (inactive) | > 100 µM (inactive) | > 100 µM (inactive) | > 100 µM (inactive) | > 100 µM (inactive) | > 100 µM (inactive) | > 100 µM (inactive) | > 100 µM (inactive) | > 100 µM (inactive) | > 100 µM (inactive) | > 100 µM (inactive) | > 100 µM (inactive) | > 100 µM (inactive) | > 100 µM (inactive) | > 100 µM (inactive) | > 100 | > 100 µM (inactive) | > 100 µM (inactive) | > 100 µM (inactive)
